Assay results published in patent publication US20250136722A1, “CYTOTOXICITY TARGETING CHIMERAS” (GLAXOSMITHKLINE INTELLECTUAL PROPERTY DEVELOPMENT LIMITED, priority 2021, published 2025).
Several values for one entry are separate records, joined by “and”; a condition that tells them apart may be missing. Equal entries are not always repeated.

What was measured:
[1] = test system: Anti-cotinine antibody SEQ ID NO: 11 / SEQ ID NO: 12 (rabbit version); assay: Binding of rabbit anti-cotinine antibody to ARM compounds by SPR, Biacore 8k, 25° C. (Example 202)
Description: (§1) Anti-cotinine antibodies having a heavy chain sequence of SEQ ID NO: 9 and a light chain sequence of SEQ ID NO: 10 (humanized version) or a heavy chain sequence of SEQ ID NO: 11 and a light chain sequence of SEQ ID NO: 12 (rabbit version) were captured via the Fc domain to a protein A or A/G surface on flow cell 2 of a CM5 sensor chip using the Biacore 8k.
(§2) After antibody capture, a 1500 second wait step was included to reduce drift in the binding step. ARM compounds of Formula (I) were then flowed over the captured antibodies at varying top concentrations ranging from 250 nM to 4 μM (see Table 6 below for top concentration values). The top concentration was diluted 4-fold over 5 dilutions (with a 0 nM compound cycle included to blank subtract the data). Association and dissociation times of the ARMs compounds of Formula (I) varied between experiments as follows and indicated in Table 6 below: reference 1—association for 600 seconds and dissociation for 1200 seconds at 20 μl/min; reference 2—association for 240 seconds and dissociation for 300 seconds at 30 μl/min; reference 3—association for 360 seconds and dissociation for 600 seconds at 30 μl/min. Anti-cotinine antibody bound to the protein A or A/G surface was regenerated using 50 mM NaOH. Experiments were run at 25° C. at pH 7.4 using HBS-EP+ buffer using Biacore 8K control software and evaluated using Biacore Insight Evaluation software. Curves were fit with the 1:1 kinetic fit inherent to the software, utilising a local Rmax and local drift setting.
(§3) Anti-cotinine antibody was tested for binding to ARMs compounds of Formula (I) of the invention in the above assay in or more experimental runs and the results are shown in Table 6 below. Affinity is reported as a pKd value. The pKd value is the negative log of the Kd value, wherein the Kd value is the dissociation constant measured in molar (M) as noted above. For compounds tested in more than one experimental run, the pKd value is reported as an average.

[2] = molecular target: Anti-cotinine antibody SEQ ID NO: 9 / SEQ ID NO: 10 (humanized version); assay: Binding of humanized anti-cotinine antibody to ARM compounds by SPR, Biacore 8k, 25° C. (Example 202); conditions: top concentration 2.50E−08 M
Description: as §1, §2, §3

[3] = test system: endogenous target monocytes in human PBMC; assay: PBMC ex vivo monocyte depletion flow cytometry assay (Example 200); assay type: cell-based; conditions: with anti-cotinine antibody SEQ ID NO: 11/12, 18-24 hours, read-out: Ex Vivo Depletion Assay pEC50 (converted)
Procedure: A human PBMC (peripheral blood mononuclear cells) monocyte depletion flow cytometry assay was developed to screen compounds in a 384-well plate format. This assay incorporated endogenous natural killer cells to deplete endogenous target monocytes.
To screen compounds in the human PBMC monocyte depletion flow cytometry assay, 11-point dose-response curves were made from 1 mM stocks in neat DMSO by serially diluting an ARM compound of Formula (I) four-fold into a 384-well plate row-wise. These serially diluted compounds were then stamped into a flat bottom polypropylene 384-well plate (Greiner Bio-One) at 100 nL/well. Fifty microliters of 30 μg/mL anti-cotinine antibody having a heavy chain sequence of SEQ ID NO: 11 and a light chain sequence of SEQ ID NO: 12 (rabbit variable region with human IgG1 Fc domain containing a DE mutation (S239D/1332E)) that had been diluted in assay medium (RPMI 1640 (Gibco) containing 10% fetal bovine serum (Gibco), 1% Glutamax (Gibco) and 1% sodium pyruvate (Corning) was added to the wells of the plate. The plate was centrifuged for 1 min at 500 rpm (revolutions per minute) and then shaken for 5 min at room temperature. The plate was incubated for 15 minutes at 37° C./5% CO2.
Frozen PBMC cells (HemaCare BioResearch) were thawed and centrifuged at 1,200 rpm for 4 minutes. The cells were diluted to a cell density of 2×10^6 cells/mL in assay medium. Fifty microliters of the diluted cells were added to the wells of the plate. The plate was centrifuged for 1 min at 500 rpm and incubated for 18-24 hours at 37° C./5% CO2.
After 18-24 hours incubation, 2 μL of 6.25 μg human FC block (BD Pharmingen) that was diluted in assay medium was added to the wells of the plate. The plate was centrifuged for 1 minute at 500 rpm and then incubated at room temperature for 15 minutes. Five microliters of 750 nM Helix NP NIR (Biolegend) that had been diluted in assay medium was added to the wells of the plate. Nine microliters of antibody cocktail containing 1/5 diluted fluorescein isothiocyanate (FITC) labeled anti-CD45 antibody (Beckman Coulter), PC7 labeled anti-CD14 antibody (Beckman Coulter) and phycoerythrin (PE) anti-CD4 antibody (Beckman Coulter) was then added to the wells of the plate. The plate was centrifuged for 1 min at 500 rpm and incubated for 30 minutes at 4-8° C. Samples from the plate were run on BD FACS Canto II flow cytometer and data was analyzed using FlowJo software.
ARMs compounds of Formula (I) of the invention were tested for the ability to deplete monocytes in the above assay in one or more experimental runs and the results are shown in Table 3 below. Potency of the compounds of the invention is reported as a pEC50 value. The pEC50 value is the negative log of the EC50 value, wherein the EC50 value is the half maximal effective concentration measured in molar (M). For compounds tested in more than one experimental run, the pEC50 value is reported as an average or as the individual values measured

[4] = reference 3: association 360 s, dissociation 600 s at 30 μl/min, top concentration 2.50E−08 or 6.25E−09 M
[5] = reference 3: association 360 s, dissociation 600 s at 30 μl/min

| pKd ([1]; reference 2: association 240 s, dissociation 300 s at 30 μl/min, top concentration 1.00E−06 or 4.00E−06 M) | SMILES | ka [1, 4] | kd [1, 4] | pKd [1, 4] | kd ([2]; reference 1: association 600 s, dissociation 1200 s at 20 μl/min) | ka [2, 5] | kd [2, 5] | pKd [2, 5] | EC50 [3] |
| --- | --- | --- | --- | --- | --- | --- | --- | --- | --- |
|  | CC(C)N(C)[C@@H]1CC[C@H](N2CC[C@H](Nc3ncnc4ccc(C(F)(F)F)cc34)C2=O)[C@H](NC(=O)[C@H]2CC[C@H](NC(=O)CCCO[C@H]3CC[C@H](OCCNC(=O)[C@H]4CC(=O)N(C)[C@@H]4c4cccnc4)CC3)CC2)C1 [Example 1, (2S,3S)-N-(2-(((1R,4S)-4-(4-(((1R,4R)-4-(((1R,2S,5R)-5-(Isopropyl(methyl)amino)-2-((S)-2-oxo-3-((6-(trifluoromethyl)quinazolin-4-yl)amino)pyrrolidin-1-yl)cyclohexyl)carbamoyl)cyclohexyl)amino)-4-oxobutoxy)cyclohexyl)oxy)ethyl)-1-methyl-5-oxo-2-(pyridin-3-yl)pyrrolidine-3-carboxamide] | 5.57e+06 M⁻¹ s⁻¹ | 0.000156 s⁻¹ | 10.55 | 0.000456 s⁻¹ and 0.000649 s⁻¹ | 1.64e+06 M⁻¹ s⁻¹ | 0.000414 s⁻¹ | 9.6 |  |
| Poor fit | CN1C(=O)C[C@H](C(=O)NCCO[C@H]2CC[C@H](OCCCC(=O)N[C@H]3CC[C@H](C(=O)N[C@@H]4C[C@H](NC(C)(C)C)CC[C@@H]4N4CC[C@H](Nc5ncnc6ccc(C(F)(F)F)cc56)C4=O)CC3)CC2)[C@H]1c1cccnc1 [Example 10] |  |  |  |  | 1.42e+06 M⁻¹ s⁻¹ | 0.000484 s⁻¹ | 9.47 |  |
|  | CN1C(=O)C[C@H](C(=O)NCCOCCOCCOCCOCCOCCC(=O)N[C@@H]2C[C@H](NC(C)(C)C)CC[C@@H]2N2CC[C@H](Nc3ncnc4ccc(C(F)(F)F)cc34)C2=O)[C@H]1c1cccnc1 [Example 37] |  |  |  |  |  |  |  | 5.01 nM |
|  | CN1C(=O)C[C@H](C(=O)NCCOCCOCCOCCOCCOCCOCCC(=O)N[C@@H]2C[C@H](NC(C)(C)C)CC[C@@H]2N2CC[C@H](Nc3ncnc4ccc(C(F)(F)F)cc34)C2=O)[C@H]1c1cccnc1 [Example 38] |  |  |  |  |  |  |  | 1.58 nM |
